Measured values: patent publication US5945549A, “Production of aqueous solutions of mixtures of formyltertrahydrofuran and hydrates thereof” (Eastman Chemical Company, priority 1999, dated 1999)
Where two headings read alike, the source gives them in different places.

What was measured:
[1] = Solvent partition coefficient into water, with and without 3-FTHF co-solvent (Examples 45-56); format: physicochemical; details: no co-solvent; H2O:(S + CS) 1:1
Text: These examples include materials which could act as solvents for the reaction and extraction.

[2] = format: physicochemical
Experimental: Partition coefficients also were determined by the same procedures for using the inert organic solvents 1-decanol (alcohol), isobutyl isobutyrate (ester, IBIB), 2,2,4-trimethyl-1,3-pentanediol monoisobutyrate (alcohol ester, TMPD-MIB), and dimethyl terphthalate (aromatic diester, DMT).

[3] = Partition coefficient of triphenylphosphine between toluene and water; format: physicochemical
Text: Rhodium, the other component of the catalyst, exists primarily as rhodium (I) hydrido carbonyl bis (triphenylphosphine) complex and accompanies the triphenylphosphine with a similar partition coefficient.

[4] = Hydration equilibrium 3-FTHF/3-DHMTHF in water by proton nuclear magnetic resonance; format: physicochemical
Experimental: The maximum density shown in Table I corresponds approximately to the composition for 3-DHMTHF. […] Confirmation of the formation of 3-DHMTHF when 3-FTHF is added to water comes from proton Nuclear Magnetic Resonance spectroscopy. At room temperature, 50 weight percent solutions of aqueous 3-FTHF show two components: 79 mole percent 3-DHMTHF and only 21 mole percent 3-FTHF. Furthermore, changing the water concentration either directly or by using water miscible solvents reversibly changes the 3-DHMTHF:3-FTHF mole ratio indicating a rapidly established equilibrium between the two components as well as showing their relative stability. The relative amounts of 3-FTHF and 3-DHMTHF at varying water/3-FTHF concentrations as determined by proton nuclear magnetic resonance spectroscopy are shown in Table II wherein the values given for "Water", "3-FTHF" and "Solvent" are weight percentages based on the total weight of the 3 component composition and "Solvent" refers to CD3 COCD3 (NMR solvent).
In Table II the value given for the 3-FTHF component is the amount of 3-FTHF dissolved in the composition although in aqueous solution it exists both as 3-FTHF and 3-DHMTHF. Some of the 3-FTHF in the water solution also exists in the form of an acetal, e.g., depending on the concentration, up to about 70 mole percent (at very high concentrations) but usually only about 0.5 mole percent (at 50 weight percent concentration) of the 3-FTHF is in the form of an acetal having the structure: [drawing 4] wherein n is 2.

[5] = Share of diol, hemiacetal or acetal in aqueous solution; format: physicochemical
[6] = 3-FTHF solubility in solvent; format: physicochemical
Experimental: Partition coefficients also were determined by the same procedures for using the inert organic solvents 1-decanol (alcohol), isobutyl isobutyrate (ester, IBIB), 2,2,4-trimethyl-1,3-pentanediol monoisobutyrate (alcohol ester, TMPD-MIB), and dimethyl terphthalate (aromatic diester, DMT). The 3-FTHF:Solvent:Water volume ratios used in each of Examples 37-44 was 3:3:4. The partition coefficients are shown in Table VI wherein the values specified for 3-FTHF Solubility in Solvent are weight percentages, the values given for Temp are the temperatures (° C.), K3FTHF is the partition coefficient for 3-FTHF determined as described above and Ksolvent is the coefficient for the solvent utilized in each example determined form its solubility in the two phase and affected by the presence of the 3-FTHF substrate.

[7] = 3-FTHF:Solvent:Water 3:3:4 by volume, 24.1-25.7 °C
[8] = 50 weight percent aqueous 3-FTHF, room temperature
[9] = Water 6.1, 3-FTHF 6.3, CD3COCD3 87.6 wt %
[10] = Water 10.4, 3-FTHF 13.8, CD3COCD3 75.8 wt %
[11] = Water 15.2, 3-FTHF 20.2, CD3COCD3 64.6 wt %
[12] = Water 19.8, 3-FTHF 26.2, CD3COCD3 54.0 wt %
[13] = Water 24.1, 3-FTHF 32.0, CD3COCD3 43.9 wt %
[14] = Water 31.4, 3-FTHF 43.5, CD3COCD3 25.1 wt %
[15] = Water 36.9, 3-FTHF 46.6, CD3COCD3 16.5 wt %
[16] = Water 37.6, 3-FTHF 54.4, CD3COCD3 8.0 wt %
[17] = Water 45.0, 3-FTHF 55.0, CD3COCD3 0.0 wt %

In the case of `COC(=O)c1ccccc1C(=O)OC` [DMP, dimethyl phthalate], the “Solvent Partition Coefficient” value [1] is reported as 0.00731.
`CC(C)c1cccc(C(C)C)c1` [DIPB, 1,3-diisopropylbenzene, reference compound] showed a KSolvent partition coefficient [2, 7] of 0.01904.
With `Cc1ccc(C)cc1` [p-Xylene, p-xylene, reference compound] the KSolvent partition coefficient [2, 7] was 0.0074 and the “Solvent Partition Coefficient” value [1] was 0.00015.
`COC(=O)c1ccc(C(=O)OC)cc1` [DMT, dimethyl terphthalate, reference compound] showed a KSolvent partition coefficient [2] of 0.02526.
With `c1ccc(P(c2ccccc2)c2ccccc2)cc1` [triphenylphosphine] the “effective partition coefficient of triphenylphosphine” value ([3]; 10 percent emulsion) was 0.095, the “partition coefficient of triphenylphosphine between toluene and water” value ([3]; Example 57, 50:1 triphenylphosphine:toluene, 1:1 water:triphenylphosphine+toluene by volume) was 0.00433 and the “partition coefficient of triphenylphosphine” value ([3]; aqueous/toluene, room temperature, 50 weight percent water in aqueous phase) was 0.0043.
For `CCCCCCCCCCO` [1-Decanol, 1-decanol, reference compound], the KSolvent partition coefficient [2, 7] was 0.01695 and the “Solvent Partition Coefficient” value [1] was 0.00028.
Work on “2,2,4-trimethyl-1,3-pentanediol monoisobutyrate [TMPD-MIB, reference compound]” yielded a KSolvent partition coefficient [2] of 0.00481.
`CC(C)CC(C)(C)C` [Isooctane, isooctane, reference compound] gave a KSolvent partition coefficient [2] of 0.00746.
With `OC(O)C1CCOC1` (stereo not shown) [3-DHMTHF, 3-Dihydroxymethyltetrahydrofuran] the “Mole Percent in equilibrium” value [4, 8] was 79 mole percent, the “Mole Percent in equilibrium” value [4, 9] was 21.6 Mole Percent and the “Mole Percent in equilibrium” value [4, 10] was 31.2 Mole Percent. For the same compound, the “Mole Percent in equilibrium” value [4, 11] was 41.9 Mole Percent, the “Mole Percent in equilibrium” value [4, 12] was 48.9 Mole Percent and the “Mole Percent in equilibrium” value [4, 13] was 56.6 Mole Percent. The “Mole Percent in equilibrium” value [4, 14] was 66.7 Mole Percent, the “Mole Percent in equilibrium” value [4, 15] was 71.2 Mole Percent and the “Mole Percent in equilibrium” value [4, 16] was 75.1 Mole Percent. For the same compound, the “Mole Percent in equilibrium” value [4, 17] was 79.0 Mole Percent.
In the case of `CCCCCCCCCC` [n-Decane, decane, reference compound], the KSolvent partition coefficient [2] is reported as 0.00661.
With `CC(C)COC(=O)C(C)C` [IBIB, isobutyl isobutyrate, reference compound] the KSolvent partition coefficient [2, 7] was 0.00772 and the “Solvent Partition Coefficient” value [1] was 0.00116.
For `O=CC1CCOC1` (stereo not shown) [3-FTHF, 3-formyltetrahydrofuran], the “3-FTHF in the form of an acetal (n is 2)” value ([5]; at 50 weight percent concentration) was “about 0.5 mole percent”, the “3-FTHF in the form of an acetal (n is 2)” value ([5]; at very high concentrations) was “up to 70 mole percent” and the “Mole Percent in equilibrium” value [4, 8] was 21 mole percent. For the same compound, the “Mole Percent in equilibrium” value [4, 9] was 78.4 Mole Percent, the “Mole Percent in equilibrium” value [4, 10] was 68.8 Mole Percent and the “Mole Percent in equilibrium” value [4, 11] was 58.1 Mole Percent. For the same compound, the “Mole Percent in equilibrium” value [4, 12] was 51.1 Mole Percent, the “Mole Percent in equilibrium” value [4, 13] was 43.4 Mole Percent and the “Mole Percent in equilibrium” value [4, 14] was 33.3 Mole Percent. The “Mole Percent in equilibrium” value [4, 15] was 28.8 Mole Percent, the “Mole Percent in equilibrium” value [4, 16] was 24.9 Mole Percent and the “Mole Percent in equilibrium” value [4, 17] was 21.0 Mole Percent. The “3-FTHF Solubility in Solvent” value ([6]; in 1-decanol) was 100 weight percentages, the “3-FTHF Solubility in Solvent” value ([6]; in DIPB) was 100 weight percentages and the “3-FTHF Solubility in Solvent” value ([6]; in DMT) was 100 weight percentages. The “3-FTHF Solubility in Solvent” value ([6]; in IBIB) was 100 weight percentages, the “3-FTHF Solubility in Solvent” value ([6]; in TMPD-MIB) was 100 weight percentages and the “3-FTHF Solubility in Solvent” value ([6]; in isooctane) was 2.36 weight percentages. For the same compound, the “3-FTHF Solubility in Solvent” value ([6]; in n-decane) was 0.93 weight percentages, the “3-FTHF Solubility in Solvent” value ([6]; in p-xylene) was 100 weight percentages and the “3-FTHF Solubility in Solvent” value ([6]; in toluene) was 100 weight percentages.
